This is an account of results in publication PMC2709466, “Heteroarotinoids with Anti-Cancer Activity Against Ovarian Cancer Cells” (The Open Medicinal Chemistry Journal, 2007).

Each structure is given as a SMILES string. pEC50: −log10 of the molar value.

On the set-up of series [1]: method as in PMID 9357524. The note with it: mice; cited from earlier work.
The test system of the next series is normal endometrial cells. Kind of series: CellTiter 96 AQueous One Solution (MTS) cytotoxicity assay, 48 h, normal cells. The note with it: 48 hours of treatment, read-out: Potencies (EC50 values) of Growth Inhibition Activity, Normal Endometrium. The series is classed as cell-based. How it is done: (§1) The CellTiter 96 AQueous One Solution Cell Proliferation Assay (Promega) was used to measure living cells remaining after 48 hours of incubation with or without a range of concentrations for the heteroarotinoids. MTS [3-(4,5-dimethylthiazol-2-yl)-5-(3-carboxymethoxyphenyl)-2-(4-sulfophenyl) -2H-tetrazolium, inner salt], a novel tetrazolium compound, was added to each well and incubated for 4 hours, followed by addition of a solublization/stop solution. After overnight incubation, the optical density (OD) of each well was determined by measuring the absorbance at 540 nm using a Dynex MRX Revelation microtiter plate reader. Treatments were performed in triplicate, and the growth indices were derived by dividing the average OD540 of each treatment by the average OD540 of control cultures. The results represent the average and standard error of two to three independent experiments.
(§2) The A2780 ovarian cancer cells were cultured in RPMI media, and normal endometrial cells were cultured in MEM media. Both media contained fetal bovine serum (FBS), sodium pyruvate, and antibiotic/antimycotic. The normal endometrial cells were collected from a healthy premenopausal […] and used prior to passage as previously described.

Series [2] concerns A2780 ovarian cancer cells. Briefly: CellTiter 96 AQueous One Solution (MTS) cytotoxicity assay, 48 h, A2780. The conditions noted are these: for pEC50: Homo sapiens, A2780 ovarian cancer cells, 48 hours of treatment, read-out: Potencies (EC50 values) of Growth Inhibition Activity, A2780 Ovarian Cancer; for Growth inhibition of ovarian cancer cultures (in words): A2780, Fig. 4; for Differential effects on cancer cells versus normal cells (therapeutic window): A2780 versus normal endometrial cells, Fig. 4C and Table 4. In kind it is cell-based. The method, then: as §1, §2
The abilities of the new heteroarotinoids to inhibit cancer growth were compared by growing the ovarian cancer cell line (A2780) in the absence and presence of various concentrations of the different compounds. The amount of cells remaining after 48 hours of treatment was measured using a cytotoxicity assay. The optical density (OD) endpoint of the assay represents the number of cells remaining after 48 hours of treatment. The Growth Index was derived by dividing the OD of treated cultures by the OD of untreated cultures. The results are presented in graphic form where Growth Index on the y axis represents the number of cells remaining after 48 hours of treatment relative to untreated controls, and the x axis represents the concentration of drug added. The lower the Growth Index, the greater the growth inhibition.

The subject of a further series is A2780 cells. Briefly: Annexin-V-FITC / propidium iodide apoptosis assay (flow cytometry). In kind it is cell-based. The note with it: 10 µM, 24 hours. How it is done:
Cells were plated in 6-well tissue culture dishes at a cell density of 1 x 10^5 cells/well. After allowing cells to adhere to the dishes overnight, parallel cultures were treated with varying concentrations of heteroarotinoids or the same volume of DMSO solvent for 24 hours. The Vybrant™ Apoptosis Assay Kit #3 (Molecular Probes) was then utilized to measure apoptosis and necrosis. Tissue culture medium in each well was collected to harvest cells that had already lifted off the tissue culture plate. These were combined with adherent cells that were harvested by trypsinization. The cells were pelleted by centrifugation and resuspended in 100 μL of 1X annexin-binding buffer, and then they were incubated with 5 µl of annexin V conjugated to fluorescein (Annexin-V-FITC) and 1 µL of 100 µg/mL propidium iodide (PI) for 15 minutes at room temperature. The solution was then mixed gently with an additional 400 µl of 1X annexin-binding buffer, and the samples were evaluated with a FACSCalibur (Becton Dickinson) automated benchtop flow cytometer at an excitation wavelength of 488 nm with observation wavelengths of 530 nm and 575 nm. Flow cytometry data were quantified using Summit for MoFlo Acquisition and Sort Control Software (Cytomation, Inc). […]

The next series relates to cancerous cell phenotype. Details: method as in PMID 11287445. The conditions noted are these: at 3 μM; cited from earlier work.
On the set-up of series [3]: method as in PMID 16534614. The conditions noted are these: preliminary evidence; cited from earlier work.
The conditions of series [4]: preclinical testing; cited from earlier work.
On the set-up of series [5]: method as in PMID 16534614. The conditions noted are these: cited from earlier work.

`CC1=C(/C=C/C(C)=C/C=C/C(C)=C/C(=O)O)C(C)(C)CCC1` [Compound 1, trans-retinoic acid]: in [1], the “maximum tolerated dose (MTD)” value was 10 mg/kg/day.
For the compound `Cc1ccc2cc(NC(=S)Nc3ccc([N+](=O)[O-])cc3)ccc2n1` [Compound 9a, 1-(2-Methylquinolin-6-yl)-3-(4-nitrophenyl) thiourea], the melting point fell in the range of 113 to 115 °C. In addition, the pEC50 in the series on normal endometrial cells is under 3.00. Also, the pEC50 in series [2] is 5.30.
Take `CCOC(=O)c1ccc(NC(=O)Nc2ccc3nc(C)ccc3c2)cc1` [Compound 9c, Ethyl 4-[3-(2-Methylquinolin-6-yl)ureido]benzoate]: the figures for the pEC50 (with normal endometrial cells; in series [2]) were under 3.00 and 5.31, respectively.
Regarding `Cc1ccc2cc(NC(=O)Nc3ccc([N+](=O)[O-])cc3)ccc2n1` [Compound 9b, 1-(2-Methylquinolin-6-yl)-3-(4-nitrophenyl)urea], the melting point was in the range of 241 to 242 °C. Besides, the pEC50 in the series on normal endometrial cells was under 3.00. The negative-log EC50 (pEC50) in series [2] is 5.10.
Turning to `CC1(C)CC(C)(C)c2cc(NC(=O)Nc3ccc([N+](=O)[O-])cc3)ccc2S1` [Compound 10c, 1-(2,2,4,4-Tetramethylthiochroman-6-yl)-3-(4-nitrophenyl)urea], the pEC50 with normal endometrial cells is 5.64. Also, the “Induction of apoptosis (Annexin-V-FITC staining)” value with A2780 cells was “induces positive staining for Annexin-V-FITC”. The “Degree of apoptosis induced, 10c compared with 10a” value with A2780 cells (Fig. 5C) is recorded as “slightly higher”. Further, in [2], the “Growth inhibition of ovarian cancer cultures (in words)” value is reported as “micromolar range”, the “Differential effects on cancer cells versus normal cells (therapeutic window)” value is given as “differential effects” and the pEC50 was 5.99.
In the case of `CC1(C)CC(C)(C)c2cc(NC(=S)Nc3ccc([N+](=O)[O-])cc3)ccc2S1` [Compound 10a, [4-nitrophenylamino][(2,2,4,4-tetramethylthiochroman-6-yl)amino]methane-1-thione], the pEC50 in the series with normal endometrial cells was 5.53. Besides, the Effects on differentiation entry in the series on cancerous cell phenotype is “normalization of the cancerous cell phenotype and induction of orderly tissue architecture”. Further, in series [3], the “Concentrations achieved and maintained in animal models” value is reported as “micromolar concentrations”. For the same compound, in series [2], the “Growth inhibition of ovarian cancer cultures (in words)” value was “micromolar range”, the “Differential effects on cancer cells versus normal cells (therapeutic window)” value is reported as “differential effects” and the pEC50 is 5.76. Moreover, the “Toxicity, skin irritancy, teratogenicity” value in [4] is listed as “without evidence of toxicity, skin irritancy, or teratogenicity”. Moreover, in series [5], the “Binding to proteins in mouse plasma” value is “binds strongly”.
